Consider two molecules from ChEMBL document CHEMBL5247626, “In vitro and in vivo biological evaluation of newly synthesized multi-target 20(R)-panaxadiol derivatives for treating Alzheimer's disease” (Eur J Med Chem, 2022).

For experiment [1], the system named is PC-12. Nature of the experiment: Neuroprotective activity against amyloid beta (25 to 35)-induced rat PC12 cells assessed as decrease in intracellular ROS level at 7.5 uM incubated for 24 hrs by DCFH-DA staining based flow cytometry assay. The experiment is classed as functional, cell-based. On the technique in general: In flow cytometry, cells or beads pass a laser one at a time.

Experiment [2] deals with PC-12. Nature of the experiment: Neuroprotective activity against amyloid beta (25 to 35)-induced rat PC12 cells assessed as decrease in tau hyperphosphorylation at Thr181 at 15 uM preincubated for 30 mins followed by amyloid beta (25 to 35) addition and measured after 24 hrs by western blot assay. The experiment is classed as functional, cell-based. To be noted: time 24.5 hrs. (In general: In western blotting, separated proteins are transferred to a membrane and probed.)

For experiment [3], the system named is PC-12. Nature of the experiment: Neuroprotective activity against amyloid beta (25 to 35)-induced rat PC12 cells assessed as reduction in amyloid beta (25 to 35)-induced apoptosis rate at 15 uM incubated for 15 mins by Annexin V-FITC/PI staining based flow cytometric analysis (reference value: 2.9%). Set-up: scale not given: the % may be the effect or the level left. To be noted: 0.25 h. In kind it is functional.

Experiment [4] concerns PC-12. Nature of the experiment: Neuroprotective activity against amyloid beta (25 to 35)-induced rat PC12 cells assessed as decrease in total tau protein expression level at 15 uM preincubated for 30 mins followed by amyloid beta (25 to 35) addition and measured after 24 hrs by western blot assay. In kind it is functional, cell-based. To be noted: time 24.5 hrs.
For experiment [5], the system named is Mus musculus. Nature of the experiment: Antialzheimer activity against amyloid beta (25 to 35)-induced cognitive deficit ICR mouse model assessed as attenuation of behavioral deficit at 1.3 mg/kg,po observed after 12 to 15 days of administration by Y maze test. Particulars: time 12-15 day. In kind it is functional, organism-based.
Experiment [6] deals with Mus musculus. Nature of the experiment: Antialzheimer activity against amyloid beta (25 to 35)-induced spatial memory deficit ICR mouse model assessed as increase in exploration time spent at 1.3 mg/kg,po observed at 16 to 20 days of administration by morris water maze test. In kind it is functional, organism-based. To be noted: time 16-20 day.
The test system of experiment [7] is Mus musculus. Nature of the experiment: Antialzheimer activity against amyloid beta (25 to 35)-induced spatial memory deficit ICR mouse model assessed as increase in distance travelled in target quadrant at 1.3 mg/kg,po observed at 16 to 20 days of administration by morris water maze test. The experiment is classed as functional, organism-based. Particulars: time 16-20 day.

Experiment [8] concerns Mus musculus. Nature of the experiment: Antialzheimer activity against amyloid beta (25 to 35)-induced cognitive deficit ICR mouse model assessed as increase in discrimination index at 1.3 mg/kg,po observed after 1 hr of administration by novel object recognition test. The experiment is classed as functional, organism-based.
Experiment [9] relates to Mus musculus. Nature of the experiment: Antialzheimer activity against amyloid beta (25 to 35)-induced cognitive deficit ICR mouse model assessed as effect on total number of arm enteries at 1.3 mg/kg,po observed after 11 days of administration by Y maze test. In kind it is functional, organism-based. Particulars: time 11.0 day.
Experiment [10] relates to Mus musculus. Nature of the experiment: Antialzheimer activity against amyloid beta (25 to 35)-induced cognitive deficit ICR mouse model assessed as increase in preferential index at 1.3 mg/kg,po observed after 1 hr of administration by novel object recognition test. The experiment is classed as functional, organism-based.
In experiment [11] the test system is Mus musculus. Nature of the experiment: Antialzheimer activity against amyloid beta (25 to 35)-induced cognitive deficit ICR mouse model assessed as increase in discrimination index at 1.3 mg/kg,po observed after 24 hrs of administration by novel object recognition test. The experiment is classed as functional, organism-based.
For experiment [12], the system named is Mus musculus. Nature of the experiment: Antialzheimer activity against amyloid beta (25 to 35)-induced cognitive deficit ICR mouse model assessed as increase in preferential index at 1.3 mg/kg,po observed after 24 hrs of administration by novel object recognition test. The experiment is classed as functional, organism-based.

Active and inactive are the calls of the source. The calls are words filed in the database; no cut-off is given here.

Take `CC1(C)CCC[C@](C)([C@H]2CC[C@]3(C)[C@@H]2[C@H](O)C[C@@H]2[C@@]4(C)CC[C@H](O)C(C)(C)[C@@H]4CC[C@]23C)O1` [PANAXADIOL]: the result in the experiment on PC-12 [1], in the experiment on PC-12 [2] and in the experiment with PC-12 [4] was Active. For the same molecule, in the experiment on PC-12 [3], the Activity is 5.4%.

For `COc1cc2c(cc1OC)C(=O)C(CC1CCN(Cc3ccccc3)CC1)C2` (centres undefined), the outcome in the experiment with Mus musculus [5], in the experiment on Mus musculus [6], in the experiment with Mus musculus [7], in the experiment on PC-12 [2], in the experiment with Mus musculus [11] and in the experiment with Mus musculus [12] was Active. In the experiment on PC-12 [4], the outcome was Active. The outcome in the experiment on Mus musculus [8], with Mus musculus [9] and in the experiment on Mus musculus [10] was inactive.
